We go through six compounds from article PMC6072853 (Frontiers in Pharmacology, 2018).

Where two headings read alike, the source gives them in different places.

Broadly, the IC50 is the concentration that inhibits the measured activity by half. The inhibition is the change of the read-out against control, counted positive when it falls.

What all share (format): cell-based, human
The test system of test [1] is HeLa. Kind of test: MTT antiproliferative assay, HeLa. To be noted: 72 h; for IC50: read-out: calculated IC50 value; for inhibition at 10 µM / inhibition at 30 µM: read-out: Growth inhibition (%) ± SEM. The source says: (§1) Gynecological cancer cell lines, including ovarian (A2780), cervical (HeLa), and breast cancer cell lines (MCF7, T47D, MDA-MB-231, and MDA-MB-361) were purchased from the European Collection of Authenticated Cell Cultures (ECACC, Salisbury, United Kingdom). Additional cervical cell lines (SiHa and C33A) and a non-cancerous immortalized, mammary gland epithelial cell line (hTERT-HME1) were purchased from LGC Standards GmbH (Wesel, Germany). Non-cancerous fibroblast cells (MRC-5) were also obtained from the ECACC. All cells were cultured in minimal essential medium supplemented with 10% fetal bovine serum, 1% non-essential amino acids, and 1% antibiotic-antimycotic mixture, in humidified air containing 5% CO2 at 37°C. Immortalized hTERT-HME1 cells were maintained in serum-free mammary epithelial cell growth medium (MEGM) supplemented with insulin, human epidermal growth factor (hEGF), hydrocortisone, bovine pituitary extract, and an antibiotic-antimycotic mixture. All the medium and supplements were purchased from Lonza Group Ltd. (Basel, Switzerland).
(§2) The antiproliferative properties of the compounds were assessed by an MTT assay ([Mosmann, 1983]). Cells were seeded onto 96-well microplates at a density of 10,000 cells/well (MDA-MB-361 and C33A) or 5,000 cells/well (all other cell lines). After an overnight incubation, fresh medium containing the test compounds (at a concentration of 10 or 30 μM) was added. After incubation for 72 h at 37°C in humidified air, [3-(4,5-dimethylthiazol-2-yl)-2,5-diphenyltetrazolium bromide] (MTT) solution (5 mg/mL) was added. Purple formazan crystals were formed by the living cells during a 4 h contact period, which were assayed by spectrophotometry after having been dissolved in 100 μL DMSO. Untreated cells served as control, and cisplatin (CIS) (Ebewe Pharma GmbH, Unterach, Austria) was used as a reference compound. […] Two independent measurements were performed with five parallel wells. To present preliminary data concerning tumor selectivity of the potent compounds, the procedure was repeated on MRC-5 fibroblast and hTERT-HME1 immortalized mammary gland epithelial cells under the same experimental conditions.

Test [2] has as its system SiHa. Kind of test: MTT antiproliferative assay, SiHa. To be noted: 72 h; for inhibition at 10 µM / inhibition at 30 µM: Homo sapiens, read-out: Growth inhibition (%) ± SEM.
Excerpt: as §1, §2
(Formazan colour is commonly taken as a measure of viable cells.)

In test [3] the test system is C33A. Kind of test: MTT antiproliferative assay, C33A. To be noted: 72 h; for inhibition at 10 µM / inhibition at 30 µM: Homo sapiens, C-33-A, read-out: Growth inhibition (%) ± SEM.
Excerpt: as §1, §2

The test system of test [4] is A2780. Kind of test: MTT antiproliferative assay, A2780. Conditions: for Growth inhibition (%) ± SEM / inhibition at 10 µM / inhibition at 30 µM: 72 h; for inhibition at 10 µM / inhibition at 30 µM: Homo sapiens, read-out: Growth inhibition (%) ± SEM.
Excerpt: as §1, §2

Test [5] has as its system MCF-7. Briefly: MTT antiproliferative assay, MCF-7. To be noted: 72 h; for inhibition at 10 µM / inhibition at 30 µM: Homo sapiens, MCF7, read-out: Growth inhibition (%) ± SEM.
Excerpt: as §1, §2

The test system of test [6] is MDA-MB-231. Briefly: MTT antiproliferative assay, MDA-MB-231. To be noted: for inhibition at 10 µM / inhibition at 30 µM: Homo sapiens, read-out: Growth inhibition (%) ± SEM; for inhibition at 10 µM: MDA-MB-231, 10 μM.
Excerpt: as §1, §2

Test [7] relates to MDA-MB-361. Kind of test: MTT antiproliferative assay, MDA-MB-361. Conditions: for Growth inhibition (%) ± SEM / inhibition at 10 µM / inhibition at 30 µM: 72 h; for inhibition at 10 µM / inhibition at 30 µM: Homo sapiens, read-out: Growth inhibition (%) ± SEM.
Excerpt: as §1, §2

For test [8], the system named is T47D. Briefly: MTT antiproliferative assay, T47D. To be noted: 72 h; for inhibition at 10 µM / inhibition at 30 µM: Homo sapiens, read-out: Growth inhibition (%) ± SEM.
Excerpt: as §1, §2

Test [9] concerns MRC-5. Briefly: MTT assay, non-cancerous fibroblasts MRC-5. To be noted: for Growth inhibition (%) ± SEM / inhibition at 10 µM / inhibition at 30 µM: 72 h; for inhibition at 10 µM / inhibition at 30 µM: Homo sapiens, MRC5, read-out: Growth inhibition (%) ± SEM.
Excerpt: as §1, §2

Test [10] deals with hTERT-HME1. Briefly: MTT assay, immortalized mammary gland epithelial cells hTERT-HME1. Conditions: for Growth inhibition (%) ± SEM: 72 h.
Excerpt: as §1, §2

The mark [11] stands for this setting: read-out: calculated IC50 value.

With `N.N.[Cl][Pt][Cl]` [CIS, cisplatin, reference compound], the “Growth inhibition (%) ± SEM” value in test [1] (10 μM) was 42.6 ± 2.3%; in test [1] (30 μM), 99.9 ± 0.3%; in [2] (10 μM) it was 88.6 ± 0.5%; in test [2] (30 μM), 90.2 ± 1.8%; in test [3] (10 μM) it was 83.8 ± 0.8%; in test [3] (30 μM), 93.9 ± 0.6%. The “Growth inhibition (%) ± SEM” value is on record as 83.6 ± 1.2% in [4] (A2780, 10 μM); 95.0 ± 0.3% in test [4] (A2780, 30 μM); 66.9 ± 1.8% in test [5] (MCF-7, 10 μM); 96.8 ± 0.4% in test [5] (MCF-7, 30 μM); 71.5 ± 1.2% in test [6] (MDA-MB-231, 30 μM, 72 h); 67.5 ± 1.0% in [7] (MDA-MB-361, 10 μM). Further, the “Growth inhibition (%) ± SEM” value in [7] (MDA-MB-361, 30 μM) came to 87.8 ± 1.1%; in test [8] (10 μM), 51.0 ± 2.0%; in test [8] (30 μM), 55.0 ± 1.5%; in test [9] (MRC-5, 10 μM), 60.3 ± 3.3%; in test [9] (MRC-5, 30 μM), 61.9 ± 1.0%; in test [10] (hTERT-HME1, 10 μM), 97.7 ± 0.3%. Moreover, the “Growth inhibition (%) ± SEM” value in [10] (hTERT-HME1, 30 μM) was determined as 99.1 ± 0.3%. Further, the IC50 in test [1] was 12400 nM; in [2] (setting [11]), 7.84 µM; in test [3] (setting [11]), 1770 nM; in test [4] (A2780, 72 h, read-out: calculated IC50 value) it was 1300 nM; in test [6] (MDA-MB-231, 72 h, read-out: calculated IC50 value), 19.1 µM; in test [7] (MDA-MB-361, 72 h, read-out: calculated IC50 value) it was 3.74 µM. For the same compound, the IC50 in [8] (setting [11]) is 9.78 µM; in [9] (MRC-5, 72 h, read-out: calculated IC50 value), 6.19 µM; in [10] (hTERT-HME1, 72 h, read-out: calculated IC50 value), 2450 nM.

In the case of `C[C@]12CC[C@H]3[C@@H](CCC4=CC(=O)CC[C@@H]43)[C@@H]1CC[C@H]2Br` [Compound 4, 17α-bromo-19-nortestosterone], the inhibition at 10 µM was 94.4 ± 0.7% in test [1] (Homo sapiens, 10 μM); under 20% in test [2] (10 μM); under 20% in test [3] (10 μM); under 20% in [4] (A2780, 10 μM); under 20% in test [5] (MCF-7, 10 μM); under 20% in test [6] (72 h). Further, the inhibition at 10 µM in [7] (MDA-MB-361, 10 μM) is under 20%; in test [8] (10 μM), under 20%; in test [9] (MRC-5, 10 μM), 11.9 ± 2.3%. The inhibition at 30 µM in test [1] (Homo sapiens, 30 μM) was 94.1 ± 0.5%; in test [2] (30 μM), under 20%; in [3] (30 μM), under 20%; in [4] (A2780, 30 μM), 54.4 ± 1.6%; in test [5] (MCF-7, 30 μM), under 20%; in test [6] (MDA-MB-231, 30 μM, 72 h) it was under 20%. The inhibition at 30 µM in test [7] (MDA-MB-361, 30 μM) is under 20%; in [8] (30 μM) it was under 20%; in test [9] (MRC-5, 30 μM), 20.4 ± 2.1%. Also, the half-inhibitory concentration (IC50) in [1] (Homo sapiens) is 1690 nM.

With `C[C@]12CC[C@H]3[C@@H](CCC4=CC(=O)CC[C@@H]43)[C@@H]1CC[C@H]2OC(=O)c1ccc([N+](=O)[O-])cc1[N+](=O)[O-]` [Compound 6, 17α-19-nortestosterone-17-yl 2′,4′-dinitrobenzoate], the inhibition at 10 µM is 32 ± 2.9% in test [1] (Homo sapiens, 10 μM); under 20% in test [2] (10 μM); under 20% in [3] (10 μM); under 20% in test [4] (A2780, 10 μM); under 20% in test [5] (MCF-7, 10 μM); under 20% in test [6] (72 h). Also, the inhibition at 10 µM in test [7] (MDA-MB-361, 10 μM) is under 20%; in [8] (10 μM) it was under 20%. The inhibition at 30 µM in [1] (Homo sapiens, 30 μM) is 26.5 ± 2.3%; in [2] (30 μM), under 20%; in test [3] (30 μM), under 20%; in test [4] (A2780, 30 μM) it was 31.9 ± 2.6%; in [5] (MCF-7, 30 μM), 35.9 ± 1.4%; in [6] (MDA-MB-231, 30 μM, 72 h) it was under 20%. Moreover, the inhibition at 30 µM in [7] (MDA-MB-361, 30 μM) was under 20%; in [8] (30 μM), 47.2 ± 2.6%.

In the case of `C[C@]12CC[C@H]3[C@@H](CCC4=CC(=O)CC[C@@H]43)[C@@H]1CC[C@H]2OC(=O)c1cc([N+](=O)[O-])cc([N+](=O)[O-])c1` [Compound 7, 17α-19-nortestosterone-17-yl 3′,5′-dinitrobenzoate], the inhibition at 10 µM was 26.6 ± 1.8% in test [1] (Homo sapiens, 10 μM); under 20% in test [2] (10 μM); under 20% in [3] (10 μM); 49.2 ± 0.9% in test [4] (A2780, 10 μM); 25.9 ± 3.1% in test [5] (MCF-7, 10 μM); under 20% in test [6] (72 h). The inhibition at 10 µM in test [7] (MDA-MB-361, 10 μM) is under 20%; in test [8] (10 μM) it was under 20%. Moreover, the inhibition at 30 µM in [1] (Homo sapiens, 30 μM) was 21.5 ± 1.9%; in test [2] (30 μM) it was under 20%; in test [3] (30 μM), under 20%; in test [4] (A2780, 30 μM), 58.1 ± 2%; in [5] (MCF-7, 30 μM), 37.7 ± 3.4%; in test [6] (MDA-MB-231, 30 μM, 72 h), under 20%. Moreover, the inhibition at 30 µM in [7] (MDA-MB-361, 30 μM) was 22 ± 1.6%; in test [8] (30 μM), under 20%.

Take `C[C@]12CC[C@H]3[C@@H](CCC4=CC(=O)CC[C@@H]43)[C@@H]1CC[C@H]2O` [Compound 2, 17α-19-nortestosterone]: the inhibition at 10 µM in test [1] (Homo sapiens, 10 μM) was 28.1 ± 4%; in test [2] (10 μM), under 20%; in [3] (10 μM), under 20%; in [4] (A2780, 10 μM), under 20%; in [5] (MCF-7, 10 μM), under 20%; in test [6] (72 h), under 20%. Moreover, the inhibition at 10 µM is under 20% in [7] (MDA-MB-361, 10 μM) and under 20% in test [8] (10 μM). Further, the inhibition at 30 µM in test [1] (Homo sapiens, 30 μM) was 37.9 ± 3.4%; in test [2] (30 μM), under 20%; in [3] (30 μM) it was under 20%; in test [4] (A2780, 30 μM), under 20%; in test [5] (MCF-7, 30 μM) it was 27.7 ± 3.7%; in [6] (MDA-MB-231, 30 μM, 72 h) it was under 20%. The inhibition at 30 µM is under 20% in [7] (MDA-MB-361, 30 μM) and under 20% in test [8] (30 μM).

As for `C[C@]12CC[C@H]3[C@@H](CCC4=CC(=O)CC[C@@H]43)[C@@H]1CC[C@H]2I` [Compound 5], the inhibition at 10 µM is 95.2 ± 0.4% in [1] (Homo sapiens, 10 μM); under 20% in test [2] (10 μM); under 20% in test [3] (10 μM); 27.7 ± 1.3% in test [4] (A2780, 10 μM); under 20% in [5] (MCF-7, 10 μM); under 20% in [6] (72 h). Moreover, the inhibition at 10 µM in [7] (MDA-MB-361, 10 μM) is under 20%; in [8] (10 μM) it was under 20%; in test [9] (MRC-5, 10 μM), 13.1 ± 1.9%. Besides, the inhibition at 30 µM in test [1] (Homo sapiens, 30 μM) was 95.8 ± 0.2%; in test [2] (30 μM) it was under 20%; in test [3] (30 μM), under 20%; in [4] (A2780, 30 μM) it was 61.6 ± 1.8%; in [5] (MCF-7, 30 μM), under 20%; in test [6] (MDA-MB-231, 30 μM, 72 h), under 20%. The inhibition at 30 µM is under 20% in test [7] (MDA-MB-361, 30 μM); under 20% in test [8] (30 μM); 13.8 ± 2% in test [9] (MRC-5, 30 μM). The half-inhibitory concentration (IC50) in [1] (Homo sapiens) is 1490 nM.
